The target of one assay is T1, human TLR9 (hTLR9) (Homo sapiens, UniProt Q9NR96).
T1 construct: host or cells: HEK293 (HEK-Blue-hTLR9)
T1 sequence (Q9NR96 26-1032): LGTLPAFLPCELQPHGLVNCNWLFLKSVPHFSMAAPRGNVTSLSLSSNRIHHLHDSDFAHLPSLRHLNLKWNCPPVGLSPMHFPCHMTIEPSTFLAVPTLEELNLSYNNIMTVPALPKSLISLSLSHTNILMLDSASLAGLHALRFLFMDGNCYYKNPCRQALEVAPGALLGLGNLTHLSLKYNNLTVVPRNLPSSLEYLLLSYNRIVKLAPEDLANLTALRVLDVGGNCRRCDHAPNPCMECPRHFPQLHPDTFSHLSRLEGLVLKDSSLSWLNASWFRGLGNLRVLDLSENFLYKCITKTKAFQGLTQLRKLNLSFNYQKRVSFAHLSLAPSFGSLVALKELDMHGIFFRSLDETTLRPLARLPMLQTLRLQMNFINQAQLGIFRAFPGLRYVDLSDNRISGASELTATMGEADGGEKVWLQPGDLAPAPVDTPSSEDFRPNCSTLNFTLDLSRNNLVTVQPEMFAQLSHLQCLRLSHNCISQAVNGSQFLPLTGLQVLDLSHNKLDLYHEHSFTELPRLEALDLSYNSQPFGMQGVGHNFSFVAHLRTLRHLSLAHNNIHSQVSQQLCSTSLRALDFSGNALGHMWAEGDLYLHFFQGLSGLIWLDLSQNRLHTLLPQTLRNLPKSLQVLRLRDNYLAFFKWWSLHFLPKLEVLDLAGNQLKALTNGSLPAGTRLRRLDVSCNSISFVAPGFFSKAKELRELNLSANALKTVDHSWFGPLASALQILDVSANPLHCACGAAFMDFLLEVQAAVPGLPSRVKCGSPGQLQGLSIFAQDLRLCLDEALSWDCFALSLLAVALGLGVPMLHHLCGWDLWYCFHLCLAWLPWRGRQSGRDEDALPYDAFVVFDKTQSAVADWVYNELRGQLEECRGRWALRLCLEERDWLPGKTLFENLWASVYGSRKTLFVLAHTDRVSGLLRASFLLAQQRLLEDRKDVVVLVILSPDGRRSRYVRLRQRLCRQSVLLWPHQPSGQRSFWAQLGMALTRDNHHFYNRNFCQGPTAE
As to the kind of experiment: TLR9 antagonist assay (HEK-Blue-hTLR9 cells, NF-kB/AP-1 driven SEAP reporter, ODN 2006 agonist). It counts as cell-based. The settings on record: 1 hour compound pre-incubation, then hTLR9 agonist (such as ODN 2006, 1 uM) overnight, SEAP read at 620 nm, 4 parameter Hill fit, read-out: hTLR9 antagonism IC50. The source says:
HEK-Blue™-hTLR9 cells were obtained from InvivoGen Inc. and used to determine test compound antagonism of human TLR9 (hTLR9) driven responses. HEK-Blue™-hTLR9 cells are designed for studying the stimulation of human TLR9 by monitoring the activation of NF-kB. As described by the manufacturer, “HEK-Blue™-hTLR9 cells were obtained by co-transfection of the hTLR9 gene and an optimized secreted embryonic alkaline phosphatase (SEAP) reporter gene into HEK293 cells. The SEAP reporter gene is placed under the control of the IFN-b minimal promoter fused to five NF-kB and AP-1 binding sites. Stimulation with a TLR9 ligand activates NF-kB and AP-1 which induces the production of SEAP. Levels of SEAP can be easily determined with QUANTI-Blue™ a detection medium that turns purple/blue in the presence of alkaline phosphatase”.
A cell suspension of HEK-Blue™-hTLR9 cells at ˜450,000 cells per ml in test medium which contained 5% (v/v) heat inactivated FBS was prepared. 180 ul of cell suspension (˜80,000 cells) was added per well of a flat-bottom 96-well plate and place in an incubator at 37° C. for overnight.
Test compounds were serially diluted in test medium, generally starting at 10 uM, and diluting by 3 fold in a 96 well master plate. 20 ul of diluted test compound was transferred using a 12 channel multi-channel pipet to the cell plate and incubated at 37° C. for 1 hour. Then 20 ul of an hTLR9 agonist (such as ODN 2006, 1 uM) was added to each well and the plate incubated at 37° C. overnight.
Invivogen's QUANTI-Blue™ was prepared following the manufacturer's instructions. […] of resuspended QUANTI-Blue™ was added per well of a flat bottom 96-well plate. 20 ul per well of induced HEK-Blue™-hTLR9 cells supernatant was then added to the plate and the plate was incubated at 37° C. for 1-3 h. SEAP levels were determined using a spectrophotometer at 620 nm.
The concentration dependent inhibition of hTLR9 dependent SEAP production was expressed as the concentration of compound which produced half the maximal level of SEAP induced by the hTLR agonist alone. Percent activity was calculated for each observation using the formula: % activity=((observed O.D.−background O.D.)/(agonist only O.D.−background O.D.))*100. The 50% inhibitory concentration (IC50) (Table 3) was calculated by using a 4 parameter Hill plot sigmoidal curve fit where the inflection point of the sigmoidal curve is defined as the point of 50% activity.

In the next assay the target is T2, TLR9 (Mus musculus, UniProt Q9EQU3).
T2 construct: Male C57Bl/6J mice, at ˜8 weeks of age from Jackson Laboratories were used; tissue Jackson Laboratories; host or cells: whole animal, male C57Bl/6J mouse
T2 sequence (Q9EQU3 26-1032): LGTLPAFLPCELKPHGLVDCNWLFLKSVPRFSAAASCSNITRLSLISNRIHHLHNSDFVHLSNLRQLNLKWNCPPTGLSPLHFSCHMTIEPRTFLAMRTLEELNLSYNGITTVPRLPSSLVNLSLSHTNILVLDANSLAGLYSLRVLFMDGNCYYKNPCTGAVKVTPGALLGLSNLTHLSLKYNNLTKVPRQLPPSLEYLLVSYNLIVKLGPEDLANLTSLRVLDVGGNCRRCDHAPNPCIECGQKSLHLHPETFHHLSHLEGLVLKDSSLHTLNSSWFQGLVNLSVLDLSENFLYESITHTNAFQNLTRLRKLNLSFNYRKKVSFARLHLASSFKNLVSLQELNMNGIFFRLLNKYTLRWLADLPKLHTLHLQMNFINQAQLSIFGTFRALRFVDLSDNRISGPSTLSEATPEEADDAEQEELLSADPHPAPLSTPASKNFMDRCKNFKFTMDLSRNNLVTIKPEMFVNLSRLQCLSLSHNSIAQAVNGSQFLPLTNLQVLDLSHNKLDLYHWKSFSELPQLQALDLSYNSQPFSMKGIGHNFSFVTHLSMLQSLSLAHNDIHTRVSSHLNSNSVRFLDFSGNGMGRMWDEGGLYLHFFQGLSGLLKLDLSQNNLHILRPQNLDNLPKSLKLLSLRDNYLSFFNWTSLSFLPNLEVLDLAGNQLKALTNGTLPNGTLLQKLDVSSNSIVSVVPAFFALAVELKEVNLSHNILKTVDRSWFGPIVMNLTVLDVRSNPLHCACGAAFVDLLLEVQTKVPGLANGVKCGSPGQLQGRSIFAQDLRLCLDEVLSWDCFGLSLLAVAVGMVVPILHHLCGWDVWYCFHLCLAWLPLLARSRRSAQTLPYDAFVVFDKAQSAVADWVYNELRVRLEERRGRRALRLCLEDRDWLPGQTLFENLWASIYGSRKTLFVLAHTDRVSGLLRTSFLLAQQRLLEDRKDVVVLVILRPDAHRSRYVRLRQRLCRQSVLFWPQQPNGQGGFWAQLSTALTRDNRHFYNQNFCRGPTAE
As to the kind of experiment: In vivo TLR antagonism: serum IL-12 after CpG ODN 1668 TLR9 agonist injection, single intraperitoneal dose to male C57Bl/6 mice. On the set-up: species or system C57Bl/6J mouse. The conditions noted are these: male C57Bl/6J mice; test article i.p. at T=0 hr; CpG ODN 1668 i.p. at T=1 hr; serum IL-12 ELISA at T=4 hr; doses 400 ug to 10 ug. The protocol: The Effects of test articles on Toll-Like Receptor (TLR) Knockdown Following a Single Intraperitoneal Dose to Male C57Bl/6 Mice.
Toll-Like Receptor (TLR) knockdown effect of test articles was evaluated in a C57Bl/6J mouse. Primary end points included a terminal blood collection for analysis of cytokine production in response to CpG-DNA TLR9 agonist injection. Male C57Bl/6J mice, at ˜8 weeks of age from Jackson Laboratories were used. Test groups were 3 mice per treatment group and the groups were administered test article in a series of descending doses within the range of 400 ug to 10 ug. Test article treatment was dosed at T=0 hr by intraperitoneal injection. Agonist (CpG ODN 1668) treatment was dosed one hour later, T=1 hr by intraperitoneal injection. Necropsy was performed 3 hours post agonist treatment, T=4 hr. Blood samples were collected into serum separator tubes, allowed to clot at room temperature for at least 20 minutes, centrifuged at ambient temperature at 3000 g for 10 minutes, and the serum was extracted. ELISA was performed to determine murine IL-12 levels following manufacture's protocol (BioLegend Inc.). Serum IL-12 levels were calculated and plotted versus administered dose of antagonist and inhibitory dose at 50% (ID50) was determined.

In the case of `CCOCc1nc2c(N(C)CCN(C)C)nc3ccccc3c2n1CCN(C)C` [Compound 61], the IC50 at human TLR9 (hTLR9) was 389 nM. With `CCOCc1nc2c(N(C)CCN(C)C)nc3ccccc3c2n1CCOCCO` [Compound 63], at human TLR9 (hTLR9), the IC50 worked out at 3350 nM. In the case of `CCOCc1nc2c(N3CCN(C)CC3)nc3ccccc3c2n1CCN(C)C` [Compound 62], the IC50 on human TLR9 (hTLR9) is 713 nM.

For the compound `CCOCc1nc2c(N(C)CCN(C)C)nc3ccccc3c2n1CCN1CCOCC1` [Compound 60], at human TLR9 (hTLR9), the IC50 was determined as 3410 nM.

For `CCOCc1nc2c(N3CCN(C)CC3)nc3ccccc3c2n1CCOCCO` [Compound 64], the IC50 at human TLR9 (hTLR9) came out at 6690 nM. Same read-out and setting: the same measure for `CCOCc1nc2c(N3CCN(C)CC3)nc3ccccc3c2n1CCN1CCN(C)CC1` [Compound 66]: 323 nM; for `CN(C)CCN(C)c1nc2ccccc2c2c1nc(O)n2CCc1c[nH]cn1` [Compound 69]: 1650 nM.

For the compound `CN(C)CCN(C)c1nc2ccccc2c2c1ncn2CCN(C)C` [Compound 67], the “In vivo TLR antagonism ID50 (inhibitory dose at 50% of serum IL-12)” value at TLR9 came out at 1262 µg. The IC50 on human TLR9 (hTLR9) was 143 nM. On the same counts, the results for `CCOCc1nc2c(N(C)CCN(C)C)nc3ccccc3c2n1CCN1CCN(C)CC1` [Compound 65] are 67 µg and 56 nM. On the same counts, the results for `CN(C)CCN(C)c1nc2ccccc2c2c1nc(O)n2CCN(C)C` [Compound 68] are 280 µg and 136 nM.

(Values after patent publication US9873694B2, “Imidazole quinoline-based immune system modulators” (Janus Biotherapeutics, Inc., priority 2011, dated 2018).)
